Patent publication US10500209B2, “Quinazolinones as bromodomain inhibitors” (Zenith Epigenetics Ltd., priority 2013, dated 2019)

Columns and labels:
[1] = molecular target: T1, Brd4 bromodomain 1 (BRD4(1)) (Homo sapiens, UniProt O60885); test: Inhibition of tetra-acetylated histone H4 binding to BET bromodomains (TR-FRET); parameters: key: Active: Compounds with an IC50 value less than 30 μM were deemed to be active.; Not Active: Compounds with an IC50 value less than 30 μM were deemed to be active; settings: first bromodomain of Brd4, tetra-acetylated histone H4 peptide
T1 construct: made in house; host or cells: E. coli BL21(DE3)
Description: Proteins were cloned and overexpressed with a N-terminal 6×His tag, then purified by nickel affinity followed by size exclusion chromatography. Briefly, E. coli BL21(DE3) cells were transformed with a recombinant expression vector encoding N-terminally Nickel affinity tagged bromodomains from Brd2, Brd3, Brd4. Cell cultures were incubated at 37° C. with shaking to the appropriate density and induced overnight with IPTG. The supernatant of lysed cells was loaded onto Ni-IDA column for purification. Eluted protein is pooled, concentrated and further purified by size exclusion chromatography. Fractions representing monomeric protein were pooled, concentrated, aliquoted, and frozen at −80° C. for use in subsequent experiments.
Binding of tetra-acetylated histone H4 and BET bromodomains was confirmed by a Time Resolved Fluorescence Resonance Energy Transfer (TR-FRET) method. N-terminally His-tagged bromodomains (200 nM) and biotinylated tetra-acetylated histone H4 peptide (25-50 nM, Millipore) were incubated in the presence of Europium Cryptate-labeled streptavidin (Cisbio Cat. #610SAKLB) and XL665-labeled monoclonal anti-His antibody (Cisbio Cat. #61HISXLB) in a white 96 well microtiter plate (Greiner). For inhibition assays, serially diluted test compound was added to these reactions in a 0.2% final concentration of DMSO. Final buffer concentrations were 30 mM HEPES pH 7.4, 30 mM NaCl, 0.3 mM CHAPS, 20 mM phosphate pH 7.0, 320 mM KF, 0.08% BSA). After a 2-h incubation at room temperature, the fluorescence by FRET was measured at 665 and 620 nm by a SynergyH4 plate reader (Biotek). The binding inhibitory activity was shown by a decrease in 665 nm fluorescence relative to 620 nm. IC50 values were determined from a dose response curve.

| Compound | FRET activity BRD4(1) [1] | melting point |
| --- | --- | --- |
| COc1cncc2nc(-c3ncccc3NC3CCN(C(C)C)CC3)[nH]c(=O)c12 [Example 58, 2-(3-((1-Isopropylpiperidin-4-yl)amino)pyridin-2-yl)-5-methoxypyrido[3,4-d]pyrimidin-4(3H)-one] | Active | 237 to 238 °C |
| COc1cc(OC)c2c(=O)[nH]c(-c3ncccc3NCC3CCN(C)C3)nc2c1 (stereo not drawn) [Example 41, 5,7-Dimethoxy-2-(3-(((1-methylpyrrolidin-3-yl)methyl)amino)pyridin-2-yl)quinazolin-4(3H)-one] | Active | 157 to 159 °C |
| COc1cc(OC)c2c(=O)[nH]c(-c3ncccc3N[C@H]3CC[C@@H](C(=O)N(C)C)CC3)nc2c1 [Example 53, cis-4-((2-(5,7-Dimethoxy-4-oxo-3,4-dihydroquinazolin-2-yl)pyridin-3-yl)amino)-N,N-dimethylcyclohexane-1-carboxamide] | Active | 276 to 278 °C |
| COc1cc(OC)c2c(=O)[nH]c(-c3cccc(NC4CCN(C(C)C)CC4)c3)nc2c1 [Example 27, 2-(3-((1-Isopropylpiperidin-4-yl)amino)phenyl)-5,7-dimethoxyquinazolin-4(3H)-one] | Active |  |
| COc1cc(N)cc2nc(-c3ncccc3NC3CCN(C(C)C)CC3)[nH]c(=O)c12 [Example 65, 7-amino-2-(3-((1-Isopropylpiperidin-4-yl)amino)pyridin-2-yl)-5-methoxyquinazolin-4(3H)-one] | Active |  |
| COc1cc(OC)c2c(=O)[nH]c(-c3ncccc3NC3CCN(C(C)(C)CO)CC3)nc2c1 [Example 68, 2-(3-((1-(1-Hydroxy-2-methylpropan-2-yl)piperidin-4-yl)amino)pyridin-2-yl)-5,7-dimethoxyquinazolin-4(3H)-one] | Active | 223 to 225 °C |
| COc1cc(OC)c2c(=O)[nH]c(-c3ncccc3NC3CCN(C)CC3)nc2c1 [Example 44, 5,7-Dimethoxy-2-(3-((1-methylpiperidin-4-yl)amino)pyridine-2-yl)quinazolin-4(3H)-one] | Active | 186 to 188 °C |
| COc1cnc(-c2nc3cc(OC)cc(OC)c3c(=O)[nH]2)c(N[C@H]2CC[C@@H](NC(=O)C(C)C)CC2)c1 [Example 38, N-(cis-4-((2-(5,7-Dimethoxy-4-oxo-3,4-dihydroquinazolin-2-yl)-5-methoxypyridin-3-yl)amino)cyclohexyl)isobutyramide] |  | 285 °C (dec.) |
| COc1ccc(-c2nc3cc(OC)cc(OC)c3c(=O)[nH]2)c(NCCN2CCNCC2)c1 [Example 24, 5,7-Dimethoxy-2-(4-methoxy-2-((2-(piperazin-1-yl)ethyl)amino)phenyl)quinazolin-4(3H)-one] | Active | 210 to 212 °C |
| COc1ccc(-c2nc3cc(OC)cc(OC)c3c(=O)[nH]2)c(NCCN2CCCCC2)c1 [Example 12, 5,7-Dimethoxy-2-(4-methoxy-2-((2-(piperidin-1-yl)ethyl)amino)-phenyl)quinazolin-4(3H)-one] | Active | 231 to 232 °C |
| COc1cc(OC)c2c(=O)[nH]c(-c3ccc(Cl)cc3NC3CCN(C(=O)C(C)C)CC3)nc2c1 [Example 34, 2-(4-Chloro-2-((1-isobutyrylpiperidin-4-yl)amino)phenyl)-5,7-dimethoxyquinazolin-4(3H)-one] | Active | 281 to 283 °C |
| COc1ccc(-c2nc3cc(OC)cc(OC)c3c(=O)[nH]2)c(N(C)C2CCN(C)CC2)c1 [Example 5, 5,7-Dimethoxy-2-(4-methoxy-2-(methyl(1-methylpiperidin-4-yl)amino)phenyl) quinazolin-4(3H)-one] |  | 217 to 218 °C |
| COc1ccc(-c2nc3cc(OC)cc(OC)c3c(=O)[nH]2)c(NCC2CCN(C)CC2)c1 [Example 6, 5,7-Dimethoxy-2-(4-methoxy-2-(((1-methylpiperidin-4-yl)methyl)amino)phenyl) quinazolin-4(3H)-one] | Active | 264 to 265 °C |
| COc1cc(OC)c2c(=O)[nH]c(-c3ccccc3NC3CCN(C(C)C)CC3)nc2c1 [Example 10, 2-(2-((1-Isopropylpiperidin-4-yl)amino)phenyl)-5,7-dimethoxyquinazolin-4(3H)-one] | Active | 267 to 269 °C |
| COc1cnc(-c2nc3cc(OC)cc(OC)c3c(=O)[nH]2)c(NC2CCN(C)CC2)c1 [Example 40, 5,7-Dimethoxy-2-(5-methoxy-3-((1-methylpiperidin-4-yl)amino)pyridin-2-yl)quinazolin-4(3H)-one] | Active | 191 to 193 °C |
| COc1cc(OC)c2c(=O)[nH]c(-c3ncccc3NCCCNC(C)C)nc2c1 [Example 43, 2-(3-((3-(Isopropylamino)propyl)amino)pyridin-2-yl)-5,7-dimethoxyquinazolin-4(3H)-one] | Active | 121 to 122 °C |
| COc1ccc(-c2nc3cc(OC)cc(OC)c3c(=O)[nH]2)c(NCCN2CCCC2)c1 [Example 11, 5,7-Dimethoxy-2-(4-methoxy-2-((2-(pyrrolidin-1-yl)ethyl)amino)phenyl)quinazolin-4(3H)-one] | Active | 226 to 228 °C |
| COc1ccc(-c2nc3cc(OC)cc(OC)c3c(=O)[nH]2)c(NC2CCC(C)(C)CC2)c1 [Example 29, 2-(2-((4,4-Dimethylcyclohexyl)amino)-4-methoxyphenyl)-5,7-dimethoxyquinazolin-4(3H)-one] | Active |  |
| COc1ccc(-c2nc3cc(OC)cc(OC)c3c(=O)[nH]2)c(NCCCN2CCOCC2)c1 [Example 13, 5,7-Dimethoxy-2-(4-methoxy-2-((3-morpholinopropyl)amino)-phenyl)quinazolin-4(3H)-one] | Active | 234 to 235 °C |
| COc1cc(OC)c2c(=O)[nH]c(-c3ncccc3NC3CCN(C(N)=O)CC3)nc2c1 [Example 54, 4-((2-(5,7-Dimethoxy-4-oxo-3,4-dihydroquinazolin-2-yl)pyridin-3-yl)amino)piperidine-1-carboxamide] | Active | 265 to 266 °C |
| COc1ccc(-c2nc3cc(OC)cc(OC)c3c(=O)[nH]2)c(NC2CCN(Cc3ccccc3)CC2)c1 [Example 35, 2-(2-((1-Benzylpiperidin-4-yl)amino)-4-methoxyphenyl)-5,7-dimethoxyquinazolin-4(3H)-one] | Active |  |
| COc1ccc(-c2nc3cc(OC)cc(OC)c3c(=O)[nH]2)c(NC2CCN(C)C2)c1 (stereo not drawn) [Example 4, 5,7-Dimethoxy-2-(4-methoxy-2-((1-methylpyrrolidin-3-yl)amino)phenyl)quinazolin-4(3H)-one] | Active | 214 to 215 °C |
| COc1cc(OC)c2c(=O)[nH]c(-c3ccc(Cl)cc3NC3CCN(C(C)C)CC3)nc2c1 [Example 33, 2-(4-Chloro-2-((1-isopropylpiperidin-4-yl)amino)phenyl)-5,7-dimethoxyquinazolin-4(3H)-one] |  | 265 °C (dec.) |
| COc1ccc(-c2nc3cc(OC)cc(OC)c3c(=O)[nH]2)c(C(=O)N2CCN(C)CC2)c1 [Example 2, 5,7-Dimethoxy-2-(4-methoxy-2-(4-methylpiperazine-1-carbonyl)phenyl) quinazolin-4(3H)-one] | Active |  |
| COc1cc(OC)c2c(=O)[nH]c(-c3ncccc3NCCN3CCOCC3)nc2c1 [Example 49, 5,7-Dimethoxy-2-(3-((2-morpholinoethyl)amino)pyridine-2-yl)quinazolin-4(3H)-one] | Active | 168 to 170 °C |
